Reference: PubChem BioAssay (NCI)
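Cells were grown in 96-well plates and exposed to each compound for 48 hours at five concentrations; endpoints were interpolated linearly between bracketing concentrations, or set to the highest concentration if not reached. GI50 is the concentration that inhibits growth by half. TGI marks complete inhibition of growth.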

Experiments:
Assay in all cases: growth of human tumour cells (NCI), 48 h
[1] = system: EKVX NSCLC
[2] = system: SK-MEL-5 melanoma
[3] = system: HT29 colon
[4] = system: RXF 393 renal
[5] = system: RPMI-8226 leukemia
[6] = system: SK-MEL-2 melanoma
[7] = system: HL-60(TB) leukemia
[8] = system: SNB-75 CNS
[9] = system: SR leukemia
[10] = system: SF-268 CNS

| SMILES | TGI [1] [µM] | TGI [2] [µM] | TGI [3] [µM] | TGI [4] [µM] | TGI [5] [µM] | TGI [6] [µM] | TGI [7] [µM] | TGI [8] [µM] | TGI [9] [µM] | TGI [10] [µM] | GI50 [9] [µM] | GI50 [10] [µM] | GI50 [1] [µM] | GI50 [2] [µM] | GI50 [3] [µM] | GI50 [4] [µM] | GI50 [5] [µM] | GI50 [6] [µM] | GI50 [7] [µM] | GI50 [8] [µM] |
| --- | --- | --- | --- | --- | --- | --- | --- | --- | --- | --- | --- | --- | --- | --- | --- | --- | --- | --- | --- | --- |
| O=c1cccccc1[O-].O=c1cccccc1[O-].O=c1cccccc1[O-].[La+3] | > 100 | 22.4 | > 100 | 31.9 | > 100 | 48 | 30.9 | – | – | – | – | – | – | – | – | – | – | – | – | – |
| N#Cc1cccc(/C=N/N=C(\N)NO)c1 | > 100 | – | > 100 | > 100 | – | > 100 | > 100 | > 100 | > 100 | > 100 | – | – | – | – | – | – | – | – | – | – |
| CC(=O)OCC1OC(n2c(-c3ccc(C)cc3)cc(-c3ccccc3)c(C#N)c2=O)C(OC(C)=O)C(OC(C)=O)C1OC(C)=O (stereo not drawn) | > 100 | > 100 | > 100 | – | > 100 | > 100 | > 100 | > 100 | – | > 100 | – | – | – | – | – | – | – | – | – | – |
| CCOc1ccc2nc(NC(=O)C(=O)C(c3cnc4ccccc4n3)[N+](=O)[O-])sc2c1 (stereo not drawn) | > 100 | > 100 | > 100 | > 100 | > 100 | > 100 | > 100 | > 100 | – | > 100 | – | – | – | – | – | – | – | – | – | – |
| CN(C)c1ccc(/C=c2\sc3nc4ccccc4n3c2=O)cc1 | > 100 | > 100 | > 100 | > 100 | – | > 100 | > 100 | > 100 | – | > 100 | – | – | – | – | – | – | – | – | – | – |
| C#CCOc1cccc(Nc2ncnc3cc(NC(=O)CCl)ccc23)c1 | 30 | 19.4 | 6.11 | 27.7 | 10.4 | 27.4 | 12.5 | – | 5.59 | 19.7 | 0.49 | 4.32 | 12 | 6.31 | 2.08 | 13.2 | 3.44 | 12.4 | 3.29 | – |
| CC(C)=CC1=C2C3=C(C(=O)C4(O)Oc5c(C)c6c7c(c5OC24C)[C@@H](C)CC[C@@H]7[C@@H](C)C[C@H]6C=C(C)C)C(C)CCC3C(C)C1 (stereo partly drawn) | > 100 | > 100 | > 100 | > 100 | > 100 | > 100 | – | > 100 | > 100 | > 100 | > 100 | > 100 | > 100 | > 100 | > 100 | > 100 | > 100 | > 100 | – | > 100 |
| O=c1c(-c2ccccc2)coc2cc(OC/C(=N/O)c3ccccc3)ccc12 | 48.5 | 24.6 | 53.2 | – | 53 | – | 95.9 | 79.2 | – | 28.7 | – | 13.5 | 13.4 | 10.9 | 14.7 | – | 13.8 | – | 21.3 | 22.9 |
| Cc1ccc(Cl)cc1NC(=O)c1sc2nc3c(cc2c1N)C(=O)CCC3 | > 100 | > 100 | > 100 | 6.96 | > 100 | > 100 | – | > 100 | – | > 100 | – | > 100 | 7.26 | 3.48 | 3.54 | 2.48 | > 100 | 3.14 | – | 4.1 |
| Clc1ccc(C(n2cc(Br)cn2)n2cc(Br)cn2)cc1 | 38.9 | 27.2 | 26.9 | 32.5 | 60.2 | 33.2 | 56.6 | – | – | 33.4 | – | – | – | – | – | – | – | – | – | – |
| CN1C(=O)C2C(C1=O)C1(O)c3ccccc3C2(N)c2ccccc21 (stereo not drawn) | > 100 | > 100 | > 100 | > 100 | – | > 100 | > 100 | > 100 | – | > 100 | – | – | – | – | – | – | – | – | – | – |
| COc1cc2c(cc1OC)C13CCN4CC5CCOC6CC(=O)N2C1C6C5CC43 (stereo not drawn) | > 100 | > 100 | > 100 | > 100 | > 100 | > 100 | > 100 | – | > 100 | > 100 | – | – | – | – | – | – | – | – | – | – |
| CC(=O)OCc1cc2ccccc2nc1C(Br)(Br)Br | 41.8 | 23.9 | 44.9 | 33.4 | – | 41.9 | 40.9 | 39.9 | 13.7 | 39.9 | – | – | – | – | – | – | – | – | – | – |
| OCC#Cc1ccccc1C#CCCCCCC#Cc1ccccc1C#CCO | 42.4 | 33.1 | > 100 | – | – | – | 41.8 | – | 40.7 | 38.7 | 18.1 | 18.8 | 21.3 | 18.9 | 21.6 | – | – | – | 18.8 | – |
| CC(=O)C1=C(O)CC2CC3c4[nH]c5ccccc5c4CCN3CC2C1 (stereo not drawn) | > 100 | > 100 | > 100 | 82.3 | – | > 100 | > 100 | > 100 | 58.5 | > 100 | – | – | – | – | – | – | – | – | – | – |
| NC(N)=NS(=O)(=O)c1ccc(Nc2c3ccccc3nc3c(C(=O)Nc4ccc(S(N)(=O)=O)cc4)cccc23)cc1 | > 100 | > 100 | > 100 | > 100 | > 100 | > 100 | > 100 | > 100 | – | > 100 | – | – | – | – | – | – | – | – | – | – |
| Cn1cc(C(=O)C[n+]2ccccc2)c2ccccc21 | 88.3 | > 100 | > 100 | – | > 100 | > 100 | > 100 | > 100 | > 100 | – | – | – | – | – | – | – | – | – | – | – |
| COc1ccccc1NC(=O)CC(=O)N/N=C/c1ccc(N(CCC#N)S(=O)(=O)c2ccccc2)cc1 | > 100 | > 100 | > 100 | – | > 100 | > 100 | > 100 | > 100 | > 100 | > 100 | – | – | – | – | – | – | – | – | – | – |
| COc1cc(C2CC(c3ccc(Nc4ccnc5cc(Cl)ccc45)cc3)=NN2c2ccc(Cl)cc2)cc(OC)c1OC (stereo not drawn) | – | 15.6 | > 100 | 8.05 | – | 6.6 | > 100 | 6.68 | 56.3 | > 100 | 1.2 | 5.49 | – | 2.68 | 2.66 | 1.34 | – | 2.35 | 4.68 | 1.11 |
